According to patent publication US20130109682A1, “CYCLIC ETHER COMPOUNDS USEFUL AS KINASE INHIBITORS” (NOVARTIS AG, priority 2010, published 2013):

Assays:
PIM3 = PIM3 (Homo sapiens, UniProt Q86V86); assay: KinaseGlo Pim3 ATP depletion assay; format: biochemical
Outline: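 Residual ATP was detected by luciferase luminescence once about half had been consumed. The reaction contained 5 nM enzyme, 100 μM BAD peptide (RSRHSSYPAGT) and 40 μM ATP in 50 mM HEPES pH 7.5, 5 mM MgCl2, 1 mM DTT and 0.05% BSA with 2.5% DMSO. Compound and enzyme/peptide were premixed 15 min before ATP.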

GSK3β = GSK3β (Homo sapiens, UniProt P49841); assay: GSK3β ATP depletion assay; format: biochemical; settings: read-out: GSK3b IC50
Outline: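 Kinase activity is read as ATP consumption: luciferase luminescence reports the ATP remaining once roughly half of the 2 μM ATP is used. Reaction mix: 5 nM GSK3β, 10 μM b-CREB peptide, 50 mM Tris pH 7.5, 15 mM MgCl2, 1 mM DTT, 0.1% BSA, 2.5% DMSO. Enzyme and peptide are preincubated 15 min before ATP is added.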

[1] = system: KMS11 (human myeloma cell line); assay: Cell proliferation assay (CellTiter-Glo), KMS11; format: cell-based; settings: Homo sapiens, KMS-11; KMS11-Luc cells
Outline: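 EC50 derived from CellTiter-Glo luminescence after 3-day exposure at 37° C. Compound was diluted to 2× in medium and added to an equal volume of cells. KMS11 myeloma cells were plated on assay day at 2000/well in IMDM with 10% FBS and sodium pyruvate.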

PIM1 = PIM1 (Homo sapiens, UniProt P11309); assay: KinaseGlo Pim1 ATP depletion assay; format: biochemical
Outline: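 IC50 is derived from residual ATP measured by KinaseGlo Plus luminescence once about half the ATP was consumed. Final conditions were 20 μM ATP, 40 μM BAD peptide and 2.5 nM kinase in HEPES pH 7.5 buffer with MgCl2, DTT and BSA, plus 2.5% DMSO. Compound and enzyme were premixed 15 min before ATP addition.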

PIM2 = PIM2 (Homo sapiens, UniProt Q9P1W9); assay: KinaseGlo Pim2 ATP depletion assay; format: biochemical
Outline: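 Compound sat 15 min with enzyme and BAD peptide before ATP was added; final levels 5 nM PIM2, 10 μM peptide, 4 μM ATP, 2.5% DMSO, pH 7.5 HEPES buffer with MgCl2, DTT, BSA. Stopped near 50% ATP consumption; remaining ATP measured by luciferase luminescence.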

PIM2, sequence (Q9P1W9 whole entry): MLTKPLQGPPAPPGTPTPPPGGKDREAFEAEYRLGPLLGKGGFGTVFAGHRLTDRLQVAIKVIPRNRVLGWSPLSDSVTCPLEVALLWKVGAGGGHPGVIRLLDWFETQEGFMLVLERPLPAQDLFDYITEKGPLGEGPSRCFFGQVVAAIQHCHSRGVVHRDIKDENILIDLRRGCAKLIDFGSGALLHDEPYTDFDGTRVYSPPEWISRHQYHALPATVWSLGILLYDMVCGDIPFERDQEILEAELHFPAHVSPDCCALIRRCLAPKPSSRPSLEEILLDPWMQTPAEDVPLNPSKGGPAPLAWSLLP
GSK3β, sequence (P49841 whole entry, species assumed): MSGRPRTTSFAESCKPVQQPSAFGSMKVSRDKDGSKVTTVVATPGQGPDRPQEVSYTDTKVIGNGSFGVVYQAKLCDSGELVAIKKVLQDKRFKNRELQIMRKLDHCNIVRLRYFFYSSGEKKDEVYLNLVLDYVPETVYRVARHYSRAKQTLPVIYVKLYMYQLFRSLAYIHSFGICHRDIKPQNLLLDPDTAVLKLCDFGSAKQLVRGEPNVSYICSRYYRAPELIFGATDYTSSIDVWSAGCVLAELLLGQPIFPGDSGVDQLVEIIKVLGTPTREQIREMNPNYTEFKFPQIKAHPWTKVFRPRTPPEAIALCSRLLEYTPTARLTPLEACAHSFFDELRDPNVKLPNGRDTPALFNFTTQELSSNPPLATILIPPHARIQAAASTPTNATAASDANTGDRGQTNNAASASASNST
PIM1, sequence (P11309 whole entry): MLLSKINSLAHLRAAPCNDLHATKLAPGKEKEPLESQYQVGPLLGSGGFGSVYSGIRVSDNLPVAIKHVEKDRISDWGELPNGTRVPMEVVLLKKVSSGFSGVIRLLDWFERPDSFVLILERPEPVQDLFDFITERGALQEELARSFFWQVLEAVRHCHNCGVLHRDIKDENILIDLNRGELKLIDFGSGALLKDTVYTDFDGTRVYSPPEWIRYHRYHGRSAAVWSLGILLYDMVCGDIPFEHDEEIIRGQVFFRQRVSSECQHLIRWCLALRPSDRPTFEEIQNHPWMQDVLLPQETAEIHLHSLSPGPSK

Compound: C[C@H]1O[C@@H](c2ccncc2NC(=O)c2nc(-c3nccs3)ccc2N)C[C@@H](O)[C@]1(C)O [Example 147, 3-amino-N-(4-((2R,4R,5S,6R)-4,5-dihydroxy-5,6-dimethyltetrahydro-2H-pyran-2-yl)pyridin-3-yl)-6-(thiazol-2-yl)picolinamide]
- IC50 (PIM3): 18.5 nM
- IC50 (GSK3β): 1320 nM
- EC50 [1]: > 10000 nM
- IC50 (PIM1): 17.4 nM
- IC50 (PIM2): 71.3 nM

Compound: C[C@H]1O[C@@H](c2ccncc2NC(=O)c2ccc(F)c(-c3c(F)cccc3F)n2)[C@H](O)[C@@H](O)[C@]1(C)O (stereo in doubt) [Example 81, 6-(2,6-difluorophenyl)-5-fluoro-N-(4-((2S,3R,4R,5S,6R)-3,4,5-trihydroxy-5,6-dimethyltetrahydro-2H-pyran-2-yl)pyridin-3-yl)picolinamide]
- IC50 (PIM3): 44 nM
- IC50 (GSK3β): 854 nM
- EC50 [1]: > 10000 nM
- IC50 (PIM1): 31 nM
- IC50 (PIM2): 720 nM

Compound: CC[C@]1(O)[C@H](O)C[C@H](c2ccncc2NC(=O)c2nc(-c3ncccc3F)ccc2N)O[C@@H]1C [Example 155, 5-amino-N-(4-((2R,4R,5S,6R)-5-ethyl-4,5-dihydroxy-6-methyltetrahydro-2H-pyran-2-yl)pyridin-3-yl)-3′-fluoro-2,2′-bipyridine-6-carboxamide]
- IC50 (PIM3): 5.3 nM
- IC50 (GSK3β): 374 nM
- EC50 [1]: 4920 nM
- IC50 (PIM1): 4 nM
- IC50 (PIM2): 46.3 nM

Compound: CC[C@H]1O[C@@H](c2ccncc2NC(=O)c2ccc(F)c(-c3c(F)ccc(C#N)c3F)n2)C[C@@H](O)[C@@H]1O [Example 2, 6-(3-cyano-2,6-difluorophenyl)-N-(4-((2R,4R,5S,6R)-6-ethyl-4,5-dihydroxytetrahydro-2H-pyran-2-yl)pyridin-3-yl)-5-fluoropicolinamide]
- IC50 (PIM3): 8.3 nM
- IC50 (GSK3β): 51 nM
- EC50 [1]: > 10000 nM
- IC50 (PIM1): 42 nM
- IC50 (PIM2): 13 nM

Compound: N#CC[C@H]1O[C@@H](c2ccncc2NC(=O)c2nc(-c3c(F)cccc3F)ncc2N)C[C@@H](O)[C@@H]1O [Example 138, 5-amino-N-(4-((2R,4R,5S,6R)-6-(cyanomethyl)-4,5-dihydroxytetrahydro-2H-pyran-2-yl)pyridin-3-yl)-2-(2,6-difluorophenyl)pyrimidine-4-carboxamide]
- IC50 (PIM3): 14 nM
- IC50 (GSK3β): 235 nM
- EC50 [1]: > 10000 nM
- IC50 (PIM1): 24 nM
- IC50 (PIM2): 27 nM

Compound: N#CC[C@H]1O[C@@H](c2ccncc2NC(=O)c2ccc(F)c(-c3c(F)cccc3F)n2)CC[C@@H]1O [Example 46, N-(4-((2R,5S,6R)-6-(cyanomethyl)-5-hydroxytetrahydro-2H-pyran-2-yl)pyridin-3-yl)-6-(2,6-difluorophenyl)-5-fluoropicolinamide]
- IC50 (PIM3): 33 nM
- IC50 (GSK3β): 442 nM
- EC50 [1]: > 10000 nM
- IC50 (PIM1): 7 nM
- IC50 (PIM2): 149 nM

Compound: Nc1cnc(-c2c(F)cccc2F)nc1C(=O)Nc1cnccc1[C@@H]1C[C@H](N)[C@]2(O)CCC[C@@H]2O1 [Example 214, 5-amino-N-(4-((2S,4S,4aR,7aS)-4-amino-4a-hydroxyoctahydrocyclopenta[b]pyran-2-yl)pyridin-3-yl)-2-(2,6-difluorophenyl)pyrimidine-4-carboxamide]
- IC50 (PIM3): 373 nM
- IC50 (GSK3β): > 25000 nM
- EC50 [1]: > 10000 nM
- IC50 (PIM1): 258 nM
- IC50 (PIM2): 2250 nM

Compound: O=C(Nc1cnccc1[C@H]1C[C@@H](O)[C@@]2(O)CCCC[C@H]2O1)c1ccnn(-c2ccccc2F)c1=O [Example 190, N-(4-((2R,4R,4aS,8aR)-4,4a-dihydroxyoctahydro-2H-chromen-2-yl)pyridin-3-yl)-2-(2-fluorophenyl)-3-oxo-2,3-dihydropyridazine-4-carboxamide]
- IC50 (PIM3): 35.5 nM
- IC50 (GSK3β): 38.5 nM
- EC50 [1]: > 10000 nM
- IC50 (PIM1): 33.9 nM
- IC50 (PIM2): 494 nM

Compound: CC[C@H]1O[C@@H](c2ccncc2NC(=O)c2c[nH]cc(-c3ccccc3F)c2=O)C[C@@H](O)[C@@H]1O [Example 202, N-(4-((2R,4R,5S,6R)-6-ethyl-4,5-dihydroxytetrahydro-2H-pyran-2-yl)pyridin-3-yl)-5-(2-fluorophenyl)-4-oxo-1,4-dihydropyridine-3-carboxamide]
- IC50 (PIM3): 1100 nM
- IC50 (GSK3β): 4400 nM
- EC50 [1]: > 10000 nM
- IC50 (PIM1): 754 nM
- IC50 (PIM2): 6910 nM

Compound: N#C[C@H]1O[C@@H](c2ccncc2NC(=O)c2nc(-c3c(F)cccc3F)ncc2N)C[C@@H](O)[C@@H]1O [Example 148, 5-amino-N-(4-((2R,4R,5S,6R)-6-cyano-4,5-dihydroxytetrahydro-2H-pyran-2-yl)pyridin-3-yl)-2-(2,6-difluorophenyl)pyrimidine-4-carboxamide]
- IC50 (PIM3): 20.4 nM
- IC50 (GSK3β): 691 nM
- EC50 [1]: > 10000 nM
- IC50 (PIM1): 29.7 nM
- IC50 (PIM2): 30.3 nM

Compound: C=C[C@H]1OC(c2ccncc2NC(=O)c2nc(-c3c(F)cccc3F)c(F)cc2N)=C[C@@H](O)[C@@H]1O [Example 25, 3-amino-6-(2,6-difluorophenyl)-N-(4-((2R,3S,4R)-3,4-dihydroxy-2-vinyl-3,4-dihydro-2H-pyran-6-yl)pyridin-3-yl)-5-fluoropicolinamide]
- IC50 (PIM3): 2 nM
- IC50 (GSK3β): 660 nM
- EC50 [1]: 1350 nM
- IC50 (PIM1): 1 nM
- IC50 (PIM2): 2 nM

Compound: C[C@@H]1O[C@H](c2ccncc2NC(=O)c2csc(-c3c(F)cccc3F)n2)[C@@H](F)[C@H](O)[C@@]1(C)O (stereo in doubt) [Example 70, 2-(2,6-difluorophenyl)-N-(4-((2R,3S,4R,5R,6S)-3-fluoro-4,5-dihydroxy-5,6-dimethyltetrahydro-2H-pyran-2-yl)pyridin-3-yl)thiazole-4-carboxamide]
- IC50 (PIM3): 19 nM
- IC50 (GSK3β): 331 nM
- EC50 [1]: > 10000 nM
- IC50 (PIM1): 1 nM
- IC50 (PIM2): 323 nM

Compound: C[C@@H]1O[C@H](c2ccncc2NC(=O)c2csc(-c3c(F)cccc3F)n2)C[C@H](N)[C@H]1O [Example 113, N-(4-((2S,4S,5R,6S)-4-amino-5-hydroxy-6-methyltetrahydro-2H-pyran-2-yl)pyridin-3-yl)-2-(2,6-difluorophenyl)thiazole-4-carboxamide]
- IC50 (PIM3): 11 nM
- IC50 (GSK3β): 64 nM
- EC50 [1]: > 10000 nM
- IC50 (PIM1): 5 nM
- IC50 (PIM2): 142 nM

Compound: CC1C(c2ccncc2NC(=O)c2ccc(F)c(-c3c(F)cccc3F)n2)OC(C)[C@H](O)C1O (stereo in doubt) [Example 66, 6-(2,6-difluorophenyl)-N-(4-((2S,3R,4S,5R,6S)-4,5-dihydroxy-3,6-dimethyltetrahydro-2H-pyran-2-yl)pyridin-3-yl)-5-fluoropicolinamide]
- IC50 (PIM3): 8 nM
- IC50 (GSK3β): 689 nM
- EC50 [1]: 2200 nM
- IC50 (PIM1): 1 nM
- IC50 (PIM2): 99 nM

Compound: C=C[C@H]1OC(c2ccncc2NC(=O)c2ccc(F)c(-c3c(F)cccc3F)n2)=C[C@@H](O)[C@@H]1O [Example 44, 6-(2,6-difluorophenyl)-N-(4-((2R,3S,4R)-3,4-dihydroxy-2-vinyl-3,4-dihydro-2H-pyran-6-yl)pyridin-3-yl)-5-fluoropicolinamide]
- IC50 (PIM3): 1 nM
- IC50 (GSK3β): 339 nM
- EC50 [1]: 900 nM
- IC50 (PIM1): 1 nM
- IC50 (PIM2): 1 nM

Compound: C=C1[C@@H](O)C[C@@H](c2ccncc2NC(=O)c2ccc(F)c(-c3c(F)cccc3F)n2)OC12CC2 [Example 7, 6-(2,6-difluorophenyl)-5-fluoro-N-(4-((5S,7S)-7-hydroxy-8-methylene-4-oxaspiro[2.5]octan-5-yl)pyridin-3-yl)picolinamide]
- IC50 (PIM3): 17 nM
- IC50 (GSK3β): 879 nM
- EC50 [1]: > 10000 nM
- IC50 (PIM1): 8 nM
- IC50 (PIM2): 151 nM
